Laboratory results from patent publication US20150202203A1, “Method of Treating Gastrointestinal Stromal Tumors” (Novartis AG, priority 2012, published 2015).
Entries after “also recorded” stand apart in the source; their conditions may differ. Where two headings read alike, the source gives them in different places.

Key:
GIST-T1 cells = assay: CellTiter-Glo cell viability assay, GIST-T1
From the text: (§1) GIST882 was established from an untreated human GIST with a homozygous missense mutation in KIT exon 13, encoding a K642E mutant KIT protein (Tuveson D A, Willis N A, et al. Oncogene 2001; 20: 5054-5058). […] GIST48 has a primary homozygous exon 11 missense mutation (V560D) and a secondary heterozygous exon 17 missense mutation (D820A). GIST430 has a primary heterozygous exon 11 in-frame deletion and a secondary heterozygous exon 13 missense mutation (V654A). […] It was established from a metastatic human GIST with a heterozygous deletion of 57 bases in exon 11 of KIT (Taguchi T, Sonobe H, Toyonaga S, et al. Lab Invest 2002; 82: 663-665).
(§2) 10,000 cells suspended in 80 μl media were seeded into each well of a 96-well cell-culture plate and grown for 24 hours prior to treatment. 10 μl of 60 μg/mL heparin (Sigma Catalog # H3149) was added to each well, and then 10 μl of 50 μg/mL FGF2 (R&D Catalog #233-FB/CF) or media was added to each well of the plates. 10 μl of each of the compound dilutions described above and 10 μl of media were added to wells to a final volume 120 μl such that all pair-wise combinations as well as the single agents were represented. Cells were incubated for 72 hrs at 37° C. in a 5% CO2 incubator following compound addition. Cell proliferation was measured using the CellTiter-Glo luminescent cell viability assay (Promega catalog # G755B) and Victor4 plate reader (Perkin Elmer).

GIST430 cells = conditions: Imatinib combined with Dovitinib, 72 hrs
Procedure: GIST-T1 was obtained from Kochi Medical School, Kochi, Japan.
GIST882 cells were cultured in RPMI-1640 (ATCC Catalog #30-2001) supplemented with 15% FBS and 1% L-glutamine, GIST48 cells in F10 (Gibco/Invitrogen Catalog #11550-043) supplemented with 15% FBS, 0.5% Mito+ (BD Bioscience Catalog #355006), 1% BPE (BD Bioscience/Fisher Catalog#354123) and 1% L-glutamine, GIST430 cells in IMEM (Gib-co/Invitrogen Catalog #12440-053) supplemented with 15% FBS and 1% L-glutamine, and GIST-T1 cells in DMEM (Gibco/Invitrogen Catalog #11965) supplemented with 10% FBS.
10,000 cells suspended in 80 μl media were seeded into each well of a 96-well cell-culture plate and grown for 24 hours prior to treatment. 10 μl of 60 μg/mL heparin (Sigma Catalog # H3149) was added to each well, and then 10 μl of 50 μg/mL FGF2 (R&D Catalog #233-FB/CF) or media was added to each well of the plates. 10 μl of each of the compound dilutions described above and 10 μl of media were added to wells to a […] such that all pair-wise combinations as well as the single agents were represented.

GIST = conditions: cited from earlier work
KIT = KIT inhibition by Western blot in GIST cell lines; assay type: cell-based, human; conditions: GIST-T1, GIST882 and GIST48; compared with dovitinib
Procedure: Protein lysates were prepared from cell monalayers using RIPA buffer (Cell Signaling Technology Catalog #9806) according to the procedure described by the manufacturer. Antibod-ies to detect phospho-KIT (Catalog #3073S), total KIT (Catalog #3308), phospho-AKT S473 (Catalog #4058), total AKT (Catalog #9272), phospho-ERK (Catalog #9101), total ERK (Catalog #9107) and phospho-FRS2 (Catalog #3864) were purchased from Cell Signaling Technology. Antibody to GAPDH (Catalog # MAB374) was purchased from Millipore and anti-FRS2(H-91) (Catalog #sc-8318) from Santa Cruz. Bound antibody was detected using the LI-COR Odyssey Infrared Imaging System.

[1] = Imatinib combined with Dovitinib, 72 hrs
[2] = absence of added FGF2, single agent
[3] = presence of added FGF2, single agent

From the text for GIST882 cells: as §1, §2

| Compound | Combination Index for 70% inhibition of GIST cell proliferation (GIST-T1 cells; [1]) | Synergy Score for inhibition of GIST cell proliferation (GIST-T1 cells; [1]) | growth inhibition (GIST-T1 cells; [2]) | growth inhibition (GIST-T1 cells; [3]) | growth inhibition (GIST-T1 cells; presence of added FGF2, single agent, listed as Dovtinib) | Combination Index for 70% inhibition of GIST cell proliferation (GIST430 cells) | Synergy Score for inhibition of GIST cell proliferation (GIST430 cells) | Combination Index for 70% inhibition of GIST cell proliferation (GIST882 cells; [1]) | Synergy Score for inhibition of GIST cell proliferation (GIST882 cells; [1]) | growth inhibition (GIST882 cells; [2]) | growth inhibition (GIST882 cells; [3]) | growth inhibition (GIST-T1 cells; absence of added FGF2, single agent, listed as nilotinib) | GI50 shift in the presence of added FGF2 (GIST-T1 cells; with vs without added FGF2) | GI50 shift in the presence of added FGF2 (GIST882 cells; with vs without added FGF2) | progression-free survival (PFS) (GIST; 800 mg/day compared to 400 mg/day, advanced GIST harboring KIT exon 9 mutations) | RFS and overall survival (GIST; adjuvant 400 mg once daily, 36 months vs 12 months (SSGXVIII/AIO)) | recurrence-free survival (RFS) (GIST; adjuvant 400 mg/day for 12 months vs placebo, after complete resection (ACOSOGZ9001)) | KIT inhibition (Western blot) (KIT) |
| --- | --- | --- | --- | --- | --- | --- | --- | --- | --- | --- | --- | --- | --- | --- | --- | --- | --- | --- |
| CN1CCN(c2ccc3nc(-c4c(N)c5c(F)cccc5[nH]c4=O)[nH]c3c2)CC1 [Dovitinib, 4-amino-5-fluoro-3-[6-(4-methylpiperazin-1-yl)-1H-benzimidazol-2-yl]quinolin-2(1H)-one] | 0.835 | 0.422 | effective | restores maximum growth inhibition; also recorded: maximum inhibition was restored to levels comparable to the absence of FGF2 | same level of maximum inhibition in the presence or absence of added FGF2 | 0.624 | 0.635 | 0.965 | 0.321 | effective | restores maximum growth inhibition; also recorded: maximum inhibition was restored to levels comparable to the absence of FGF2 |  |  |  |  |  |  |  |
| Cc1cn(-c2cc(NC(=O)c3ccc(C)c(Nc4nccc(-c5cccnc5)n4)c3)cc(C(F)(F)F)c2)cn1 [Nilotinib, 4-methyl-3-[[4-(3-pyridinyl)-2-pyrimidinyl]amino]-N-[5-(4-methyl-1H-imidazol-1-yl)-3-(trifluoromethyl)phenyl]benzamide] |  |  | inhibits growth of GIST-T1 cells | less sensitive; also recorded: significantly decreased |  |  |  |  |  | sensitive to KIT inhibition | less sensitive | sensitive to KIT inhibition | greater than 10 fold | greater than 10 fold |  |  |  |  |
| Cc1ccc(NC(=O)c2ccc(CN3CCN(C)CC3)cc2)cc1Nc1nccc(-c2cccnc2)n1 [Imatinib, 4-(4-methylpiperazin-1-ylmethyl)-N-[4-methyl-3-(4-(pyridin-3-yl)pyrimidin-2-ylamino)phenyl]-benzamide] |  |  | efficacious | less sensitive |  |  |  |  |  | efficacious | less sensitive |  |  |  | significantly improves | superior to 12 months | significantly prolonged RFS | more potent KIT inhibitor than dovitinib |
